Measurements taken from patent publication US8871754B2, “Compounds and compositions for the treatment of parasitic diseases” (IRM LLC, priority 2012, dated 2014).

What was measured:
[1] = tested on: P. falciparum (NF54 or 3D7 strain) in infected human erythrocytes; test: Assay for P. falciparum proliferation in infected human blood cells (SYBR Green); assay type: cell-based; settings: Plasmodium falciparum, Erythrocyte; NF54 or 3D7 strain, 72 hours, SYBR Green fluorescence; read-out: EC50 (nM), inhibitory efficacy in delaying P. falciparum proliferation in infected human blood cells
Method: Assay for P. falciparum Proliferation in Infected Human Blood Cells
Compounds of the invention can be assayed to measure their capacity to inhibit proliferation of P. falciparum parasitemia in infected red blood cells. This parasite proliferation assay measures the increase in parasite DNA content using a DNA intercalating dye, SYBR Green® (INVITROGEN®) which has a high affinity for double stranded DNA.
NF54 or 3D7 P. falciparum strain is grown in complete culturing media until parasitemia reaches 3% to 8% with O+ human erythrocytes. […] 20 μl of screening media is dispensed into 384 well assay plates. 50 nl of compounds of the invention (in DMSO), including antimalarial controls (mefloquine, pyrimethamine and artemisinin), are then transferred into the assay plates, as well as DMSO alone to serve as a negative control for inhibition. Then 30 μl of a suspension of a NF54 or 3D7 P. falciparum infected erythrocytes in screening media is dispensed into the assay plates such that the final hematocrit is 2.5% with a final parasitemia of 0.3%. The plates are placed in a 37° C. incubator for 72 hours in a low oxygen environment containing 93% N2, 4% CO2, and 3% O2 gas mixture. 10 μl of lysis buffer (saponin, triton-X, EDTA) containing a 10× solution of SYBR Green I® in RPMI media is dispensed into the plates. The plates are lidded and kept at room temperature overnight for the lysis of the infected red blood cells. The fluorescence intensity is measured (excitation […], emission 530 nm) using the Envision™ system (Perkin Elmer). The percentage inhibition of 50%, […], is calculated for each compound.

[2] = tested on: P. yoelii sporozoites in HepG2-A16-CD81EGFP cells; test: P. yoelii sporozoite invasion assay (proliferation of parasite in infected liver cells, immunofluorescence); assay type: cell-based; settings: Plasmodium yoelii, 48 hours, parasite area by immunofluorescence, read-out: EC50 (nM), inhibitory efficacy by the P. yoelii sporozoite invasion assay
From the text: Assay for Profiferation of Parasite in Infected Liver Cells
Compounds of the invention can be assayed to measure their capacity to inhibit proliferation of parasites in liver cells. The proliferation is quantified by determine the number of infected cells by immunofluorescence.
Due to the difficulty of successfully infecting immortalized human liver cell lines with the human malaria sporozoites (liver-stage parasite), rodent malaria sporozoites from Plasmodium yoelii (17XNL) and P. berghei (ANKA) are the preferred surrogate. Sporozoites are obtained from Anopheles stephensi mosquitoes supplied by the New York University Insectary, which ships the malaria-infected mosquitoes 10-13 days following the ingestion of an infective blood meal.
A transgenic HepG2 cell line expressing the tetraspanin CD81 receptor (HepG2-A16-CD81^EGFP) is used to increase the infectivity rate of rodent-malaria sporozoites into human cells. HepG2-A16-CD81^EGFP cells are stably transformed to express a GFP-CD81 fusion protein. A continuous in vitro culture of this line was maintained at 37° C. in 4% CO2 in complete media (CM) which contains: DMEM (Invitrogen, Carlsbad, USA) supplemented with 10% FCS, 0.29 mg/ml glutamine, 100 units penicillin and 100 μg/ml streptomycin (SigmaAldrich, USA).
P. yoelii Sporozoite Invasion Assay
Twenty to twenty-six hours prior to sporozoite infection, 7.5×10^3 HepG2-A16-CD81^EGFP cells are seeded into 384-well plates (Aurora 384 IQ-EB black plates with clear bottoms; 50 μl of 1.5×10^5 cells/ml in CM). These plates are incubated at 37° C. with 4% CO2 overnight. Two hours prior to infection, 50 nl of compound dissolved in DMSO (0.1% final DMSO concentration per well) were transferred with a PinTool (GNF Systems) into the assay plates (10 μM final concentration). A 1:3 serial dilution of atovaquone (10 μM at the highest final concentration) and wells treated only with DMSO were used as positive and negative controls, respectively.
Freshly dissected salivary glands from infected mosquitoes were homogenized in a glass tissue grinder, filtered twice through Nylon cell strainers (40 μm pore size, BD Falcon) and counted using a hemocytometer. The assay plate with HepG2-A16-CD81^EGFP cells and compound were then infected with 8×10^3 sporozoitesper well and the plates are subjected to a centrifugal force of 650×g to pellet the sporozoites onto the liver cell monolayer. The assay plate is incubated at 37° C. for 2 hours to permit sporozoite invasion, then the media is aspirated from the media plate, and replaced with 50 μl CM (containing a 5× concentration of penicillin/streptomycin; 500 units penicillin and 0.5 mg streptomycin per ml) per well. 50 nl of compound is re-introduced by PinTool and the assay plate incubated for 48 hours at 37° C. before quantification of infected cells by immunofluorescence.
Atovaquone and uninfected wells were used as controls on each plate. Two replicate plates are tested for each assay.
Immunofluorescence Quantification of Exo-Erythrocytic Forms (EEFs)
After fixing the cells by addition of 12.5 μl of 20% solution of paraformaldehyde (EMS, Hatfield, USA) to each assay well (4% final formaldehyde concentration), membranes were permeabilized with 0.5% Triton-X-100 (Thermo Fisher Scientific) and EEFs were stained using a mouse polyclonal serum raised against the Plasmodium yoelii heat shock protein 70 (PyHSP70), a DyLight 649 goat anti-mouse IgG, Fc(gamma) fragment specific secondary antibody (Jackson Immuno Research, Cat#115-495-071) and the Hoechst 33342 nucleic acid dye (Invitrogen, Carlsbad, USA). Stained EEFs were then quantified using the Opera Confocal High Content Screening System (Perkin Elmer, Waltham, USA). Images were collected using a 20× objective lens (20×/0.45 NA, LWD Plan Fluor, Olympus) at a binning of 2, using a 365 nm Xeon arc lamp illumination to detect the Hoechst-labeled nuclei and 635 nm laser line to excite DyLight649-labeled parasites. […]

CN(C(=O)c1ccn2ncc(-c3ccc(C(F)(F)F)cc3)c2c1)c1ccc(C#N)cc1 [Example 1, N-(4-cyanophenyl)-N-methyl-3-(4-(trifluoromethyl)phenyl)pyrazolo[1,5-a]pyridine-5-carboxamide]
EC50 [1]: 8 nM | EC50 [2]: 7.3 nM

CN(C(=O)c1ccn2ncc(-c3ccc(C(F)(F)F)cc3)c2c1)c1ccc(C#N)cn1 [Example 13, N-(5-cyanopyridin-2-yl)-N-methyl-3-(4-(trifluoromethyl)phenyl)pyrazolo[1,5-a]pyridine-5-carboxamide]
EC50 [1]: 8 nM | EC50 [2]: 17.9 nM

CN(C(=O)c1ccn2ncc(-c3ccc(C(N)=O)cc3)c2c1)c1ccc(C#N)cc1 [Example 19, 3-(4-carbamoylphenyl)-N-(4-cyanophenyl)-N-methylpyrazolo[1,5-a]pyridine-5-carboxamide]
EC50 [1]: 1 nM | EC50 [2]: 4.3 nM

CN(C(=O)c1ccn2ncc(-c3ccc(C(N)=O)cc3)c2c1)c1ccc(F)cc1 [Example 20, 3-(4-carbamoylphenyl)-N-(4-fluorophenyl)-N-methylpyrazolo[1,5-a]pyridine-5-carboxamide]
EC50 [1]: 9 nM | EC50 [2]: 13.5 nM

CN(C(=O)c1ccn2ncc(-c3ccc(C(F)(F)F)cn3)c2c1)c1ccc(C#N)cn1 [Example 25, N-(5-cyanopyridin-2-yl)-N-methyl-3-(5-(trifluoromethyl)109yridine-2-yl)pyrazolo[1,5-a]pyridine-5-carboxamide]
EC50 [1]: 7 nM | EC50 [2]: 229 nM

CN(C(=O)c1ccn2ncc(-c3ccc(C(N)=O)cn3)c2c1)c1ccc(C#N)cc1 [Example 27, 3-(5-carbamoylpyridin-2-yl)-N-(4-cyanophenyl)-N-methylpyrazolo[1,5-a]pyridine-5-carboxamide]
EC50 [1]: 10 nM | EC50 [2]: 201 nM

CN(C(=O)c1ccc(C#N)cc1)c1ccn2ncc(-c3ccc(C(F)(F)F)cc3)c2c1 [Example 28, 4-cyano-N-methyl-N-(3-(4-(trifluoromethyl)phenyl)pyrazolo[1,5-a]pyridine-5-yl)benzamide]
EC50 [1]: 7 nM | EC50 [2]: 23.2 nM

CN(C(=O)c1ccn2ncc(-c3ccc(C(N)=O)cc3)c2c1)c1ccc(C#N)cn1 [Example 32, 3-(4-carbamoylphenyl)-N-(5-cyanopyridin-2-yl)-N-methylpyrazolo[1,5-a]pyridine-5-carboxamide]
EC50 [1]: 1 nM | EC50 [2]: 8 nM

CN(C(=O)c1ccn2ncc(-c3ccc(C(F)(F)F)cc3)c2c1)c1ccc(S(C)(=O)=O)cn1 [Example 34, N-methyl-N-(5-(methylsulfonyl)114yridine-2-yl)-3-(4-(trifluoromethyl)phenyl)pyrazolo[1,5-a]pyridine-5-carboxamide]
EC50 [1]: 22 nM | EC50 [2]: 53.2 nM

CN(C(=O)c1ccn2ncc(-c3cnc4[nH]ccc4c3)c2c1)c1ccc(C#N)cc1 [Example 40, N-(4-cyanophenyl)-N-methyl-3-(1H-pyrrolo[2,3-b]pyridin-5-yl)pyrazolo[1,5-a]pyridine-5-carboxamide]
EC50 [1]: 1 nM | EC50 [2]: 63.1 nM

CN(C(=O)c1ccn2ncc(-c3ccc(N)nc3)c2c1)c1ccc(C#N)cc1 [Example 41, 3-(6-aminopyridin-3-yl)-N-(4-cyanophenyl)-N-methylpyrazolo[1,5-a]pyridine-5-carboxamide]
EC50 [1]: 2 nM | EC50 [2]: 14.3 nM

CN(C(=O)c1ccn2ncc(-c3ccc(N)nc3)c2c1)c1ccc(C#N)cn1 [Example 54, 3-(6-aminopyridin-3-yl)-N-(5-cyanopyridin-2-yl)-N-methylpyrazolo[1,5-a]pyridine-5-carboxamide]
EC50 [1]: 9 nM | EC50 [2]: 79 nM

CNC(=O)c1ccc(-c2cnn3ccc(C(=O)N(C)c4ccc(C#N)cc4)cc23)cc1 [Example 67, N-(4-cyanophenyl)-N-methyl-3-(4-(methylcarbamoyl)phenyl)pyrazolo[1,5-a]pyridine-5-carboxamide]
EC50 [1]: 5 nM | EC50 [2]: 4.6 nM

CNC(=O)c1ccc(-c2cnn3ccc(C(=O)N(C)c4ccc(C#N)cn4)cc23)cc1 [Example 75, N-(5-cyanopyridin-2-yl)-N-methyl-3-(4-(methylcarbamoyl)phenyl)pyrazolo[1,5-a]pyridine-5-carboxamide]
EC50 [1]: 4 nM | EC50 [2]: 2.25 nM

CN(C(=O)c1ccn2ncc(-c3ccc(C(N)=O)cc3)c2c1)C1CCC(C#N)CC1 (stereo not drawn) [Example 82, 3-(4-carbamoylphenyl)-N-(4-cyanocyclohexyl)-N-methylpyrazolo[1,5-a]pyridine-5-carboxamide]
EC50 [1]: 1160 nM

CN(C(=O)c1ccn2ncc(-c3cnc(N)nc3)c2c1)c1ccc(C#N)cc1 [Example 83, 3-(2-aminopyrimidin-5-yl)-N-(4-cyanophenyl)-N-methylpyrazolo[1,5-a]pyridine-5-carboxamide]
EC50 [1]: 4 nM

CN(C(=O)c1ccn2ncc(-c3cnc(N)c(C(F)(F)F)c3)c2c1)c1ccc(C#N)cn1 [Example 84, 3-(6-amino-5-(trifluoromethyl)pyridin-3-yl)-N-(5-cyanopyridin-2-yl)-N-methylpyrazolo[1,5-a]pyridine-5-carboxamide]
EC50 [1]: 6 nM

CN(C(=O)c1ccn2ncc(-c3cnc(N)c(C#N)c3)c2c1)c1ccc(C#N)cn1 [Example 85, 3-(6-amino-5-cyanopyridin-3-yl)-N-(5-cyanopyridin-2-yl)-N-methylpyrazolo[1,5-a]pyridine-5-carboxamide]
EC50 [1]: 16 nM

CN(C(=O)c1ccn2ncc(-c3cnc(N)c(Cl)c3)c2c1)c1ccc(C#N)cn1 [Example 86, 3-(6-amino-5-chloropyridin-3-yl)-N-(5-cyanopyridin-2-yl)-N-methylpyrazolo[1,5-a]pyridine-5-carboxamide]
EC50 [1]: 10 nM

CN(C)C(=O)c1cc(-c2cnn3ccc(C(=O)N(C)c4ccc(C#N)cn4)cc23)cnc1N [Example 87, 3-(6-amino-5-(dimethylcarbamoyl)pyridin-3-yl)-N-(5-cyanopyridin-2-yl)-N-methylpyrazolo[1,5-a]pyridine-5-carboxamide]
EC50 [1]: 41 nM

COc1cc(-c2cnn3ccc(C(=O)N(C)c4ccc(C#N)cn4)cc23)cnc1N [Example 88, 3-(6-amino-5-methoxypyridin-3-yl)-N-(5-cyanopyridin-2-yl)-N-methylpyrazolo[1,5-a]pyridine-5-carboxamide]
EC50 [1]: 83 nM

CN(C(=O)c1ccn2ncc(-c3ccc(C(N)=O)cc3)c2c1)c1ccc(Cl)cc1C=O [Example 89, 3-(4-carbamoylphenyl)-N-(4-chloro-2-formylphenyl)-N-methylpyrazolo[1,5-a]pyridine-5-carboxamide]
EC50 [1]: 6 nM
